Each structure is given as a SMILES string. pIC50: −log10 of the molar value.

The target in the assay is T1, BACE1 (Homo sapiens, UniProt P56817).
T1 construct: endogenous in cells; host or cells: HEK293 APP cells
T1 sequence (P56817 46-501): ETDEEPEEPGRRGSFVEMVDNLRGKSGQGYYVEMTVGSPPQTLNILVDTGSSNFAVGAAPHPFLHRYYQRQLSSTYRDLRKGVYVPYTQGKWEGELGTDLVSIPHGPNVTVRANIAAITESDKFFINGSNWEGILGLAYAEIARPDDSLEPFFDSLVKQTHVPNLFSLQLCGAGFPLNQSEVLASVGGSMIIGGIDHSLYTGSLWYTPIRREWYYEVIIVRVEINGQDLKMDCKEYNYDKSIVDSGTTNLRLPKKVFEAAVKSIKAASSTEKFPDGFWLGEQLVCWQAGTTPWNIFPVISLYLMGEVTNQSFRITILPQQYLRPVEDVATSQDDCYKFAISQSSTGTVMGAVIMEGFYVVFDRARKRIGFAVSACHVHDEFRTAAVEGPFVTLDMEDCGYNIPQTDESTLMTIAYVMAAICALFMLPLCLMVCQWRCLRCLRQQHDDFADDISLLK
Put plainly: Cellular Aβ-lowering assay (Abeta 40 AlphaLISA). To be noted: HEK293 APP cells, 18-20 hrs incubation, Aβ 40 in culture supernatant; read-out: BACE1 cell act. Aβ40 IC50. It counts as cell-based. As for the experimental part: Cellular Aβ-Lowering Assay:
The Abeta 40 AlphaLISA Assay can be used. The HEK293 APP cells were seeded in 96 well Microtiter plates in cell culture medium (Iscove's, plus 10% (vv) fetal bovine serum, penicillinstreptomycin) to about 80% confluency and the compounds were added at a 3× concentration in 13 volume of culture medium (final DMSO concentration was kept at 1% vv). After 18-20 hrs incubation at 37° C. and 5% CO2 in a humidified incubator, the culture supernatants were harvested for the determination of Aβ 40 concentrations using Perkin-Elmer Human Amyloid beta 1-40 (high specificity) Kit (Cat# AL275C).
Levels of Aβ 40 in the culture supernatants were calculated as percentage of maximum signal (cells treated with 1% DMSO without inhibitor). The IC50 values were calculated using the Excel XLfit software.
In general terms: In Alpha technology, singlet oxygen from a donor bead excites a nearby acceptor bead.
Regarding `C[C@@]1(c2cc(NC(=O)c3cnc(OCF)cn3)ccc2F)C[C@@H](C(F)(F)F)OC(N)=N1` [Example 23, N-(3-((4S,6S)-2-Amino-4-methyl-6-(trifluoromethyl)-5,6-dihydro-4H-1,3-oxazin-4-yl)-4-fluorophenyl)-5-(fluoromethoxy)pyrazine-2-carboxamide], the negative-log IC50 (pIC50) is 9.00.
`NC1=N[C@](CF)(c2cc(NC(=O)c3ccc(C(F)F)cn3)ccc2F)C[C@@H](C(F)(F)F)O1` [Example 33, N-(3-((4S,6S)-2-Amino-4-(fluoromethyl)-6-(trifluoromethyl)-5,6-dihydro-4H-1,3-oxazin-4-yl)-4-fluorophenyl)-5-(difluoromethyl)picolinamide]: the pIC50 is 8.00.
For `NC1=N[C@](CF)(c2cc(NC(=O)c3cnc(OC(F)F)cn3)ccc2F)C[C@@H](C(F)(F)F)O1` [Example 39, N-(3-((4S,6S)-2-Amino-4-(fluoromethyl)-6-(trifluoromethyl)-5,6-dihydro-4H-1,3-oxazin-4-yl)-4-fluorophenyl)-5-(difluoromethoxy)pyrazine-2-carboxamide], the pIC50 is 9.40.
Then `NC1=N[C@](CF)(c2cc(NC(=O)c3ccc(OC(F)F)cn3)ccc2F)C[C@@H](C(F)(F)F)O1` [Example 31, N-(3-((4S,6S)-2-Amino-4-(fluoromethyl)-6-(trifluoromethyl)-5,6-dihydro-4H-1,3-oxazin-4-yl)-4-fluorophenyl)-5-(difluoromethoxy)picolinamide], with 8.15; and `Cc1cnc(C(=O)Nc2ccc(F)c([C@]3(C)C[C@@H](C(F)(F)F)OC(N)=N3)c2)cn1` [Example 21, N-(3-((4S,6S)-2-Amino-4-methyl-6-(trifluoromethyl)-5,6-dihydro-4H-1,3-oxazin-4-yl)-4-fluorophenyl)-5-methylpyrazine-2-carboxamide], with 7.23.
The result for `NC1=N[C@](CF)(c2cc(NC(=O)c3coc(CF)n3)ccc2F)C[C@@H](C(F)(F)F)O1` [Example 47, N-(3-((4S,6S)-2-Amino-4-(fluoromethyl)-6-(trifluoromethyl)-5,6-dihydro-4H-1,3-oxazin-4-yl)-4-fluorophenyl)-2-(fluoromethyl)oxazole-4-carboxamide] reads 9.00; that for `C[C@@]1(c2cc(NC(=O)c3ccc(OCC(F)(F)F)cn3)ccc2F)C[C@@H](C(F)(F)F)OC(N)=N1` [Example 18, N-(3-((4S,6S)-2-Amino-4-methyl-6-(trifluoromethyl)-5,6-dihydro-4H-1,3-oxazin-4-yl)-4-fluorophenyl)-5-(2,2,2-trifluoroethoxy)picolinamide], 8.10.
On to `COc1cnc(C(=O)Nc2ccc(F)c([C@]3(C)C[C@@H](C(F)(F)F)OC(N)=N3)c2)cn1` [Example 5, N-(3-((4S,6S)-2-amino-4-methyl-6-(trifluoromethyl)-5,6-dihydro-4H-1,3-oxazin-4-yl)-4-fluorophenyl)-5-methoxypyrazine-2-carboxamide], for which the negative logarithm of the IC50 (pIC50) is 8.30.
`NC1=N[C@](CF)(c2cc(NC(=O)c3ccc(OC(F)(F)F)cn3)ccc2F)C[C@@H](C(F)(F)F)O1` [Example 32, N-(3-((4S,6S)-2-Amino-4-(fluoromethyl)-6-(trifluoromethyl)-5,6-dihydro-4H-1,3-oxazin-4-yl)-4-fluorophenyl)-5-(trifluoromethoxy)picolinamide]: the negative logarithm of the IC50 (pIC50) is 8.15.
Then `Cc1cc(C#N)cnc1C(=O)Nc1ccc(F)c([C@]2(CF)C[C@@H](C(F)(F)F)OC(N)=N2)c1` [Example 27, N-(3-((4S,6S)-2-Amino-4-(fluoromethyl)-6-(trifluoromethyl)-5,6-dihydro-4H-1,3-oxazin-4-yl)-4-fluorophenyl)-5-cyano-3-methylpicolinamide], with 8.70; and `NC1=N[C@](CF)(c2cc(NC(=O)c3ccc(OCC(F)(F)F)cn3)ccc2F)C[C@@H](C(F)(F)F)O1` [Example 34, N-(3-((4S,6S)-2-Amino-4-(fluoromethyl)-6-(trifluoromethyl)-5,6-dihydro-4H-1,3-oxazin-4-yl)-4-fluorophenyl)-5-(2,2,2-trifluoroethoxy)picolinamide], with 7.15.
Turning to `N#Cc1cnc(C(=O)Nc2ccc(F)c([C@]3(CF)C[C@@H](C(F)(F)F)OC(N)=N3)c2)c(Cl)c1` [Example 28, N-(3-((4S,6S)-2-Amino-4-(fluoromethyl)-6-(trifluoromethyl)-5,6-dihydro-4H-1,3-oxazin-4-yl)-4-fluorophenyl)-3-chloro-5-cyanopicolinamide], the negative-log IC50 (pIC50) was 7.96.
Then `C[C@@]1(c2cc(NC(=O)c3ccc(OC(F)(F)F)cn3)ccc2F)C[C@@H](C(F)(F)F)OC(N)=N1` [Example 16, N-(3-((4S,6S)-2-Amino-4-methyl-6-(trifluoromethyl)-5,6-dihydro-4H-1,3-oxazin-4-yl)-4-fluorophenyl)-5-(trifluoromethoxy)picolinamide], with 9.00; and `NC1=N[C@](CF)(c2cc(NC(=O)c3cnc(OCC(F)F)cn3)ccc2F)C[C@@H](C(F)(F)F)O1` [Example 40, N-(3-((4S,6S)-2-Amino-4-(fluoromethyl)-6-(trifluoromethyl)-5,6-dihydro-4H-1,3-oxazin-4-yl)-4-fluorophenyl)-5-(2,2-difluoroethoxyl)pyrazine-2-carboxamide], with 7.54; and `C[C@@]1(c2cc(NC(=O)c3coc(CF)n3)ccc2F)C[C@@H](C(F)(F)F)OC(N)=N1` [Example 25, N-(3-((4S,6S)-2-Amino-4-methyl-6-(trifluoromethyl)-5,6-dihydro-4H-1,3-oxazin-4-yl)-4-fluorophenyl)-2-(fluoromethyl)oxazole-4-carboxamide], with 9.10.
With `Cc1cc(C#N)cnc1C(=O)Nc1ccc(F)c([C@]2(C)C[C@@H](C(F)(F)F)OC(N)=N2)c1` [Example 12, N-(3-((4S,6S)-2-Amino-4-methyl-6-(trifluoromethyl)-5,6-dihydro-4H-1,3-oxazin-4-yl)-4-fluorophenyl)-5-cyano-3-methylpicolinamide], the negative logarithm of the IC50 (pIC50) is 8.52.
On to `C[C@@]1(c2cc(NC(=O)c3ncc(C#N)cc3Cl)ccc2F)C[C@@H](C(F)(F)F)OC(N)=N1` [Example 13, N-(3-((4S,6S)-2-Amino-4-methyl-6-(trifluoromethyl)-5,6-dihydro-4H-1,3-oxazin-4-yl)-4-fluorophenyl)-3-chloro-5-cyanopicolinamide], for which the negative logarithm of the IC50 (pIC50) was 7.89.
The result for `Cc1cnc(C(=O)Nc2ccc(F)c([C@]3(CF)C[C@@H](C(F)(F)F)OC(N)=N3)c2)cn1` [Example 42, N-(3-((4S,6S)-2-Amino-4-(fluoromethyl)-6-(trifluoromethyl)-5,6-dihydro-4H-1,3-oxazin-4-yl)-4-fluorophenyl)-5-methylpyrazine-2-carboxamide] reads 7.19; that for `C[C@@]1(c2cc(NC(=O)c3cnc(C(F)F)cn3)ccc2F)C[C@@H](C(F)(F)F)OC(N)=N1` [Example 20, N-(3-((4S,6S)-2-Amino-4-methyl-6-(trifluoromethyl)-5,6-dihydro-4H-1,3-oxazin-4-yl)-4-fluorophenyl)-5-(difluoromethyl)pyrazine-2-carboxamide], 8.30.
The result for `C[C@@]1(c2cc(NC(=O)c3nn(C(F)F)cc3Cl)ccc2F)C[C@@H](C(F)(F)F)OC(N)=N1` [Example 26, N-(3-((4S,6S)-2-Amino-4-methyl-6-(trifluoromethyl)-5,6-dihydro-4H-1,3-oxazin-4-yl)-4-fluorophenyl)-4-chloro-1-(difluoromethyl)-1H-pyrazole-3-carboxamide] reads 9.00.
With `NC1=N[C@](CF)(c2cc(NC(=O)c3ccc(Cl)cn3)ccc2F)C[C@@H](C(F)(F)F)O1` [Example 4, N-(3-((4S,6S)-2-amino-4-(fluoromethyl)-6-(trifluoromethyl)-5,6-dihydro-4H-1,3-oxazin-4-yl)-4-fluorophenyl)-5-chloropicolinamide], the pIC50 was 7.66.
The result for `N#Cc1ccc(C(=O)Nc2ccc(F)c([C@]3(C(F)F)C[C@@H](C(F)(F)F)OC(N)=N3)c2)nc1` [Example 49, N-(3-((4S,6S)-2-Amino-4-(difluoromethyl)-6-(trifluoromethyl)-5,6-dihydro-4H-1,3-oxazin-4-yl)-4-fluorophenyl)-5-cyanopicolinamide] reads 7.09; that for `NC1=N[C@](CF)(c2cc(NC(=O)c3cnc(OCC(F)(F)F)cn3)ccc2F)C[C@@H](C(F)(F)F)O1` [Example 41, N-(3-((4S,6S)-2-Amino-4-(fluoromethyl)-6-(trifluoromethyl)-5,6-dihydro-4H-1,3-oxazin-4-yl)-4-fluorophenyl)-5-(2,2,2-trifluoroethoxyl)pyrazine-2-carboxamide], 7.77.
Regarding `COc1ccc(C(=O)Nc2ccc(F)c([C@]3(C)C[C@@H](C(F)(F)F)OC(N)=N3)c2)nc1` [Example 14, N-(3-((4S,6S)-2-Amino-4-methyl-6-(trifluoromethyl)-5,6-dihydro-4H-1,3-oxazin-4-yl)-4-fluorophenyl)-5-methoxypicolinamide], the negative-log IC50 (pIC50) is 8.70.
The result for `C[C@@]1(c2cc(NC(=O)c3cnc(OC(F)F)cn3)ccc2F)C[C@@H](C(F)(F)F)OC(N)=N1` [Example 24, N-(3-((4S,6S)-2-Amino-4-methyl-6-(trifluoromethyl)-5,6-dihydro-4H-1,3-oxazin-4-yl)-4-fluorophenyl)-5-(difluoromethoxy)pyrazine-2-carboxamide] reads 8.52.
The result for `NC1=N[C@](CF)(c2cc(NC(=O)c3cnc(OCF)cn3)ccc2F)C[C@@H](C(F)(F)F)O1` [Example 43, N-(3-((4S,6S)-2-Amino-4-(fluoromethyl)-6-(trifluoromethyl)-5,6-dihydro-4H-1,3-oxazin-4-yl)-4-fluorophenyl)-5-(fluoromethoxy)pyrazine-2-carboxamide] reads 8.52.

The pIC50 is the IC50 on a negative log10 scale, so that one unit is a factor of ten.

(Values after patent US9067926B2, “Fluoromethyl-5,6-dihydro-4H-[1,3]OXAZINES” (F. Hoffmann-La Roche AG, priority 2012, dated 2015).)
